In general, IC50 refers to the concentration at which inhibition is half-maximal.

Like-named read-outs stand apart in the source and are kept apart here.

From patent publication US20170305861A1, “HETEROARYL COMPOUNDS COMPRISING NITROGEN AND USE THEREOF” (ImmunoMet Therapeutics, Inc, priority 2016, published 2017) come the findings set out here.

One assay concerns SK-MEL-28 cells. As to the kind of experiment: Inhibitory effect of cancer cell proliferation, MTT. Format: cell-based. The following applies: Homo sapiens, SK-MEL-28, 72 hours, MTT.
Assay [1] relates to A549 cell lines (lung cancer cell lines). The assay is described as follows: Oxygen Consumption Rate (OCR) of cells, corrected for cell viability (Cyquant). Format: cell-based. As to conditions: Homo sapiens; A549 cells, 24 h drug treatment, OCR value reflecting cell viability; read-out: OCR IC50.
Assay [2] has as its system RENCA mouse kidney cancer cells. The assay is described as follows: Antitumor effect in mouse kidney cancer cells, subcutaneous RENCA implant in BALB/c mice. It counts as in vivo. As to conditions: for volume of tumor: 10 mg/kg intraperitoneally once a day, BALB/c mice. The protocol:
RENCA, which are mouse kidney cancer cells, were cultured in RPMI 1640 medium containing 10% FBS and 1% anti-anti at 37° C. and 5% CO2. 8- to 10-week-old BALB/c mice with a body weight range of 18 g to 20 g were subjected to a 7-day acclimation period, and then 1×10^6/0.1 mL of RENCA cells in PBS were subcutaneously implanted on the right side of the backs of the mice. Seven days after implantation, group separation was performed based on the average of tumor volumes when the tumor volumes reached […]. A vehicle control group was intraperitoneally injected with PBS containing 2% DMSO and 2% Tween80, and an Example 62 administration group was intraperitoneally injected at a dose of 10 mg/kg, once a day for 2 weeks. Tumor volume measurements were performed twice weekly using Vemier calipers, and the volume of tumor was calculated by substituting long axis and short axis for 0.5×long axis×short axis^2.

For `Br.c1cc(C[n+]2ccc(N3CCCC3)cc2)cs1` [Example 62, 4-(Pyrrolidin-1-yl)-1-(thiophen-3-ylmethyl)pyridinium bromide], the IC50 in the assay on SK-MEL-28 cells (0.75 mM glucose, read-out: SK-MEL-28 0.75 mM glucose Cell viability (IC50 μM)) worked out at 3.1 µM; in the assay on SK-MEL-28 cells (11.1 mM glucose, read-out: SK-MEL-28 11.1 mM glucose Cell viability (IC50 μM)), 40.1 µM; in assay [1], 1 µM. In addition, the volume of tumor in assay [2] (day 7 post tumor implantation (group separation)) was 81 ± 7 mm³; in assay [2] (day 9 post tumor implantation), 146 ± 17 mm³; in assay [2] (day 12 post tumor implantation), 227 ± 39 mm³; in assay [2] (day 14 post tumor implantation) it was 364 ± 68 mm³; in assay [2] (day 16 post tumor implantation), 545 ± 132 mm³; in assay [2] (day 20 post tumor implantation) it was 775 ± 206 mm³. In assay [2] (from the 6th day of administration, 10 mg/kg intraperitoneally once a day for 2 weeks), the “tumor growth compared with the vehicle control group” value is given as “remarkably inhibited tumor growth”.
